The source of these data is publication PMC4595804, “A strategy to discover decoy chemokine ligands with an anti-inflammatory activity” (Scientific Reports, 2015).

One assay has as its target CXCR4 (Homo sapiens, UniProt P61073). As to conditions: EGFP-CXCR4+ HEK cells, 1 h preincubation.
The next assay deals with T1, CCL22 (Homo sapiens, UniProt O00626).
T1 construct: codes for the mature CCL17 or CCL22 with an N-terminal thioredoxin-hexahistidin (TRX- (His)6) tag; thioredoxin (TRX) (N, cleaved yes); (His)6 (N, cleaved yes); made in house; host or cells: E. coli BL21 (DE3)
T1 sequence (O00626 25-93): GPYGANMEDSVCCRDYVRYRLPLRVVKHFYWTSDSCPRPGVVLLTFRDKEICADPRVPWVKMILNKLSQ
The experiment in a line: Tryptophan fluorescence assay on CCL22. Type of assay: binding. As to conditions: 0–25 μM compound. On the procedure:
Fluorescence measurements were performed on a spectrofluorometer (JobinYvon/Spex) in a quartz microcuvette at 20 °C. […] The fluorescence emission spectra were corrected by subtracting the emission scan of the compounds alone and data analysis was carried out with fluorescence intensities detected at 340 nm.

Assay [1] concerns the target T2, CCR4 (Homo sapiens, UniProt P51679).
T2 construct: signal peptide fused to EGFP (N); expressed in transfected cells; host or cells: HEK-293
T2 sequence (P51679 1-360): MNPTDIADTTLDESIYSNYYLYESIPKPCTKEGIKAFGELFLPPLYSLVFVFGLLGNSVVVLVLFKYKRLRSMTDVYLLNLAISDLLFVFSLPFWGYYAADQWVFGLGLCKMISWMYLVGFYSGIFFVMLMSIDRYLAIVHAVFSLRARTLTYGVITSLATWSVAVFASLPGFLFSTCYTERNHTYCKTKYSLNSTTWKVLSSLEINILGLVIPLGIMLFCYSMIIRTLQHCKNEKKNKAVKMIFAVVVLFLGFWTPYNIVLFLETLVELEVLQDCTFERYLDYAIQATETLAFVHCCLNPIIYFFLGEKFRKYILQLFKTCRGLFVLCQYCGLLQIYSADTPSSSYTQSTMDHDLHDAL
The experiment in a line: TRIC-r calcium assay, antagonist protocol: compound preincubated with CCR4-expressing cells. To be noted: primary screen. The class given is cell-based. As to the method: (§1) Two plates (96-well plates, Greiner) were prepared for the screen: one containing test compounds alone in order to determine their direct agonistic activity, and another one containing test compounds mixed with CCL17 or CCL22 at room temperature for 1 h (neutraligand protocol). The chemokines and test compounds were prepared at a 3× concentration, while digitonin was prepared at a 4× concentration. The CCR4 antagonist, C-021 served as control in the experiment. In the antagonist protocol, compounds were added to the cell plate (one compound per well) and incubated with cells for 30 min at room temperature, while the agonist (CCL17 or CCL22) was added to the ligand plate only.
Dye loaded cells were placed in the FlexStation 3 (Molecular Devices). Calcium mobilization was measured at 401 and 475 nm emission fluorescence after excitation at 355 nm. For the primary screening, the ligands (50μl of chemokine mixed with DMSO or test compounds) were added to the cells at 40 s, followed by digitonin addition (50μl) at 100 s to the cells. […] Raw fluorescence data (at 401 and 475 nm) were exported and the ratio 401/475 was calculated. The calcium response values (height of peak response over baseline) were determined. […] Hit molecules were confirmed by performing concentration-response curves and their half maximal inhibitory concentration (IC50) values were calculated using the Kaleidagraph software.

In another assay the test system is CCR4+ HUT78 cells. Description: HUT78 chemotaxis: compounds alone or preincubated with the cells (antagonist protocol). Type of assay: cell-based, human. To be noted: receptor antagonist protocol, 1 μM, 3 nM CCL17 or CCL22. As to the method: Cell migration was carried out in RPMI1640-BSA (0.1%) using Transwell 96-well plates (Corning Costar, 5 μm pore size, polycarbonate membranes). […] Lower wells contained the same medium diluted with DMSO or chemokine (3 nM CCL17 or CCL22).
0.1% BSA using Transwell 96-well plates (Corning Costar, 5µm pore size, polycarbonate […]
the same medium diluted with DMSO or chemokine (3nM CCL17 or CCL22). In neutraligand inhibition studies, prior to their use, CCL17 (a) and CCL22 (b) were pre-incubated with […]
in the lower compartment. For characterization of the antagonist properties, the compounds were pre-incubated with the cells in the upper compartment. C-021 (1µM, stripped bars), the CCR4 receptor antagonist, was used as a control in both incubation protocols. Results are expressed as the percentage of cells that migrated to the lower chamber. Data represent the means±SD. Experiments were performed in triplicate.
(1 picture or pasted object on this page, not shown here)

Assay [2] concerns the target T3, CCL17 (Homo sapiens, UniProt Q92583).
T3 construct: codes for the mature CCL17 or CCL22 with an N-terminal thioredoxin-hexahistidin (TRX- (His)6) tag; thioredoxin (TRX) (N, cleaved yes); (His)6 (N, cleaved yes); made in house; host or cells: E. coli BL21 (DE3)
T3 sequence (Q92583 24-94): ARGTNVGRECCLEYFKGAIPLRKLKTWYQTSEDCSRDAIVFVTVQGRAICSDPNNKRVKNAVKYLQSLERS
Description: Tryptophan fluorescence assay on CCL17. The class given is binding. As to conditions: 0–25 μM compound. On the procedure:
Fluorescence measurements were performed on a spectrofluorometer (JobinYvon/Spex) in a quartz microcuvette at 20 °C. CCL17 and CCL22 (1.5 μM in HEPES buffer without BSA) were excited at 285 nm and emission spectra were recorded (300–400 nm). […] The fluorescence emission spectra were corrected by subtracting the emission scan of the compounds alone and data analysis was carried out with fluorescence intensities detected at 340 nm.

In assay [3] the target is T3, CCL17. The experiment in a line: TRIC-r calcium assay, neutraligand protocol: compound preincubated with CCL17, EGFP-CCR4+Gqi5+ HEK cells. To be noted: neutraligand protocol, control compound. Type of assay: cell-based. On the procedure: EGFP-CCR4^+Gqi5^+HEKcells were loaded with fluorescent Ca^2+-indicator Indo-1 AM (5μM, Interchim) for 45 min at 37 °C. […] Cells (100,000 cells/well, 100μl) were seeded in black clear bottom 96-well plates (Greiner), and centrifuged at 250 × g for 5 min.
as §1
Dye loaded cells were placed in the FlexStation 3 (Molecular Devices). […] For the primary screening, the ligands (50μl of chemokine mixed with DMSO or test compounds) were added to the cells at 40 s, followed by digitonin addition (50μl) at 100 s to the cells. Molecules were screened at a final concentration of 2μg/ml with 5 nM CCL17 or CCL22. […] The calcium response values (height of peak response over baseline) were determined. Hits were selected by comparing the response amplitude at the time of the chemokine addition ± test compound. The Z’ factor[29] was calculated according to the following equation: Z’ = 1-(3SD+ + 3SD−)/|Ave+ − Ave−|, where SD+ and Ave+ are respectively the standard deviation and the mean value of the positive controls (chemokine + DMSO), while SD− and Ave− are respectively the standard deviation and the mean value of the negative controls (HEPES-BSA (0.1%) mixed with DMSO, or cells mixed with C-021). Hit molecules were confirmed by performing concentration-response curves and their half maximal inhibitory concentration (IC50) values were calculated using the Kaleidagraph software.

The target of assay [4] is T2, CCR4. The experiment in a line: EGFP-CCR4 receptor surface level / endocytosis on EGFP-CCR4+ HEK cells. Type of assay: cell-based. To be noted: 100 nM chemokine, 30 min, EGFP-CCR4+ HEK cells. As to the method: CCR4 levels were evaluated by flow cytometry (FACSCalibur, BD biosciences) using cell surface labeling of EGFP with monoclonal mouse anti-GFP (Roche Applied Science; 1:100 dilution) as primary antibody and R-phycoerythrin conjugated AffiniPure F (ab’)2 fragment goat anti-mouse (Immunotech; 1/100) as secondary antibody.

The target of assay [5] is T2, CCR4. The experiment in a line: Dose-response of chemokine-induced calcium responses in EGFP-CCR4+Gqi5+ HEK cells. As to conditions: recombinant chemokine, + Gqi5, 21 °C. The class given is cell-based. As to the method: EGFP-CCR4^+Gqi5^+HEKcells were loaded with fluorescent Ca^2+-indicator Indo-1 AM (5μM, Interchim) for 45 min at 37 °C. The cells were detached in PBS-EDTA (5 mM) for 2 min, suspended in growth medium, pelleted by centrifugation at 320 × g for 5 min, and resuspended in HEPES-BSA buffer (137.5 mM NaCl, 6 mM KCl, 1.25 mM CaCl2, 1.25 mM MgCl2, 0.4 mM NaH2PO4, 5.6 mM glucose, 10 mM HEPES, BSA (0.1%, w/v), pH 7.4). Cells (100,000 cells/well, 100μl) were seeded in black clear bottom 96-well plates (Greiner), and centrifuged at 250 × g for 5 min.
Dye loaded cells were placed in the FlexStation 3 (Molecular Devices). Calcium mobilization was measured at 401 and 475 nm emission fluorescence after excitation at 355 nm. […] Raw fluorescence data (at 401 and 475 nm) were exported and the ratio 401/475 was calculated. The calcium response values (height of peak response over baseline) were determined. […] The Z’ factor[29] was calculated according to the following equation: Z’ = 1-(3SD+ + 3SD−)/|Ave+ − Ave−|, where SD+ and Ave+ are respectively the standard deviation and the mean value of the positive controls (chemokine + DMSO), while SD− and Ave− are respectively the standard deviation and the mean value of the negative controls (HEPES-BSA (0.1%) mixed with DMSO, or cells mixed with C-021). […]

Sequence of CXCR4 (P61073 whole entry): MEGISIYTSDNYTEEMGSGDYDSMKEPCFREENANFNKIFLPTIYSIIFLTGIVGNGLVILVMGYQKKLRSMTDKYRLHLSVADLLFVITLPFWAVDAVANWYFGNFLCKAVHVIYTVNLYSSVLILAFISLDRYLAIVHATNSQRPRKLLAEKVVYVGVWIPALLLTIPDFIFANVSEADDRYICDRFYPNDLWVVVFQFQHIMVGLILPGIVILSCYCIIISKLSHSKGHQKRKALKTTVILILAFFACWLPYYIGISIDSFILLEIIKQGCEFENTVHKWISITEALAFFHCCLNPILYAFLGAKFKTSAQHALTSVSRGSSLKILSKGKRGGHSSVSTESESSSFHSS
Description for CXCR4: The identification of neutraligands relies on the measurement of kinetic-based calcium responses.
Monitoring calcium responses in a time-resolved manner allows the discrimination of compounds binding to the chemokine from those binding to the receptor. This is achieved using a pre-incubation protocol in which the tested compounds are preincubated with the receptor or with the chemokine prior to calcium monitoring. […] These incubation protocols are named Time-Resolved Intracellular Calcium recordings (TRIC-r) allowing the identification of neutraligands versus receptor antagonists.

For the molecule `c1cc(CN2CCCNCCNCCCNCC2)ccc1CN1CCCNCCNCCCNCC1` [AMD3100], the “amplitude of CXCL12 calcium responses, preincubation with the chemokine compared with preincubation with the receptor” value on CXCR4 was “much greater”.

Turning to `COc1cc2nc(N3CCC(N4CCCCC4)CC3)nc(NC3CCCCCC3)c2cc1OC` [C-021, reference compound], the “change in tryptophan fluorescence of CCL22” value on CCL22 is given as “No significant change”. The “effect on the response to CCL17 or CCL22 after preincubation with the receptor-expressing cells” value at CCR4 [1] is on record as “abolished responses”. For the same molecule, the “inhibition of CCR4+ HUT78 T cell migration, compound preincubated with the cells” value in the assay on CCR4+ HUT78 cells amounted to 90%. For the same molecule, on CCL17 [2], the “change in tryptophan fluorescence of CCL17” value is reported as “No significant change”. The “effect on CCL17 calcium responses after preincubation with the chemokine” value at CCL17 [3] was “not with the chemokine”.

B1: CCL17: recombinant human chemokine (Thymus and Activation-Regulated Chemokine), CCR4 agonist, produced in E. coli (protein)
chain: ARGTNVGRECCLEYFKGAIPLRKLKTWYQTSEDCSRDAIVFVTVQGRAICSDPNNKRVKNAVKYLQSLERS
modifications: left off: thioredoxin (TRX), N-terminal, cleaved | His6, N-terminal, cleaved
As usually defined, the EC50 is the concentration needed to bring the measured effect to its halfway point. As to B1, the “CCR4 internalization (receptor endocytosis) induced by the chemokine” value with CCR4 [4] is reported as “approximately 43.0 ± 3.0%”. Moreover, the EC50 with CCR4 [5] amounted to 3.7 ± 0.4 nM.

B2: CCL22: recombinant human chemokine (Macrophage-Derived Chemokine), CCR4 agonist, produced in E. coli (protein)
chain: GPYGANMEDSVCCRDYVRYRLPLRVVKHFYWTSDSCPRPGVVLLTFRDKEICADPRVPWVKMILNKLSQ
modifications: left off: thioredoxin (TRX), N-terminal, cleaved | His6, N-terminal, cleaved
notes: recombinant human chemokine (Macrophage-Derived Chemokine), CCR4 agonist, produced in E. coli
As for B2, the “CCR4 internalization (receptor endocytosis) induced by the chemokine” value with CCR4 [4] came to 78.0 ± 3.0%. For the same molecule, the EC50 with CCR4 [5] came out at 2.9 ± 0.5 nM.
